For data set [1], the system named is serotonin neural pathways. The data set can be described thus: DOI Headshake Model. The class given is in vivo. The arrangement: key: Active: A statistically significant decrease in the number of headshakes induced by the administration of DOI in the mice given the test compound relative to the mice given the control was an indication of modulation of the serotonin neural pathways and thus an indication of an active compound. As to conditions: DOI-induced headshakes, mice (NIH Swiss; starred compounds also CD-1); for Number of Headshakes, IP Admin: i.p., doses up to 100 mg/kg; for Number of Headshakes, Oral Admin.: doses up to 40 mg/kg. As to the method:
Male CD-1 or NIH-Swiss mice were fasted overnight. The mice were given control vehicle or test compound by the oral or intraperitoneal (i.p.) routes of administration at doses up to 40 mg/kg orally and up to 100 mg/kg i.p. Administration time was denoted as t0. At each of several selected intervals after t0 (at about 45 min, 1 h, 2 h, 4 h, 6 h, 8 h, 24 h after administration), separate groups of mice were given 1-{2,5-dimethoxy-4-iodophenyl]-2-aminopropane (DOI), a known serotonin receptor type-2A agonist, by the intraperitoneal route of administration route. […] (Separate groups of mice were tested at each time interval.) Peak activity time, denoted as tp, was determined as the time of the greatest reduction in the number of DOI-induced headshakes for mice given the test compound compared to the number of headshakes for the mice given the control, measured at the same time interval.
A statistically significant decrease in the number of headshakes induced by the administration of DOI in the mice given the test compound relative to the mice given the control was an indication of modulation of the serotonin neural pathways and thus an indication of an active compound.
In vivo biological activity was measured for select compounds of the present invention as listed in Table 11, using the procedures outlined above. Starred (*) compounds were tested on both male CD-1 mice and NIH Swiss mice, all other compounds were tested using Swiss NIH mice.

Data set [2] relates to rats. Put plainly: Elevated Plus Maze (EPM) Test. The format is in vivo. The note with it: Long-Evans Hooded rats, 10 mg/kg po, one hour after dosing. The arrangement: key: Active = statistically significant (Mann Whitney U test p < 0.05) increase in open arm time or open arm entries at 10 mg/kg po. As to the method: (§1) Male Long-Evans Hooded rats weighing 180 to 200 grams were purchased from Charles River Inc (Portage MI). The rats were housed in groups of four at an ambient temperature of 21 to 23° C. in a room with an automated 12/12 hour light/dark cycle. The rats had access to water and a commercial rodent food ad libitum. At the time of the experiment the rats weighed 220 to 350 grams.
(§2) The assay was run with test compound or vehicle administered to the animals at time zero. Fifty minutes after administration, the animals were tested in the SMA (Spontaneous Locomotor Activity), which was completed in 10 minutes. Immediately following SMA testing, the rats were moved and tested in the EPM (elevated Plus Maze), which was also completed in ten minutes. Test compounds were suspended in an aqueous vehicle (MC) comprised of 0.5% Methylcellulose and administered p.o.
The elevated plus maze (EPM) is the most widely used animal test of anxiety. The fully quantitative computerized EPM has validity as an anxiety model from the theoretical basis and pharmacological responses. The EPM also has high ecological validity since it studies the spontaneous behavioral patterns in response to interactions with the environment.
The procedure is based on the natural aversion of rodents to explore open and high places, as well as their innate tendency for thigmotaxis. When rats are placed on the elevated-plus maze, they have a normal tendency to remain in the enclosed arms of the maze and avoid venturing into the open arms. Animals treated with typical or atypical anxiolytics show an increase in the percentage of time spent (% Time) and/or the percentage of entries made (% Entries) into the open arms.
The test apparatus used consisted of a black plastic maze with two open arms and two arms with 40 cm high walls (enclosed arms) of equal length (50 cm) extending from the center at right angles, such that arms of similar type were opposite each other. Each plus-maze was elevated approximately 60 cm above the floor. Infrared photo-beams that crossed the entrance of each arm and the center of the maze detected the exploratory activity of an animal in the maze. […]
Anxiolytic activity of a test compound was quantified using two parameters: a) the percent of total time spent by a rat in one of the two open arms of the apparatus (% open arm time) which was calculated as follows: [formula] • and b) the number of times a rat entered the open arms relative to the total entries into all arms and the center area (% open arm entries), calculated as follows: [formula]
Data were analyzed for statistical significance between drug and vehicle-treated groups via one tailed Mann-Whitney T-Test. […]

Data set [3] relates to Senktide-induced headshake. Put plainly: Reversal of Senktide-induced head shake in mice. The format is in vivo. Details: key: Active = a statistically significant (Mann-Whitney t-test (one-tailed)) reduction in the headshakes produced by senktide (5 mg/kg), in animals dosed with test compound 10 mg/kg po. As to conditions: NIH-Swiss mice, test compound 10 mg/kg po, senktide 5 mg/kg sc 45 min later, 10 min count. The protocol:
The in vivo assay measuring the reversal of Senktide-induced headshake in mice has been previously described in the literature by Sarau, H. M., et al in J. Pharmacol. Exp. Therapeutics (2000), 295 pp 373-381.
Briefly, overnight fasted NIH-Swiss mice weighing 18-21 gms were treated with test compound or vehicle by the oral (gavage) route, at various concentrations. Forty five (45) minutes after administration, the animals are injected subcutaneously (sc) with Senktide at a concentration of 5 mg/kg. Immediately after administration of the Senktide, the animals are randomized and laced into isolated observation chambers and the number of headshakes per recorded over a ten (10) minute period. A decrease in the number of Senktide induced headshakes for test compound treated animals as compared with vehicle treated animals (analysis completed using Mann-Whitney t-test (one tailed)) was taken as an indication of anxiolytic activity for the compound.
Representative compounds of the instant invention were tested for reversal of Senktide-induced headshakes in mice, with results as listed in Table 12.

Data set [4] has as its system rats. The data set can be described thus: Spontaneous Locomotor Activity (SMA) Test. The class given is in vivo. As to conditions: Long-Evans Hooded rats, 10 mg/kg po, 50 minutes after administration; decrease = sedation. The arrangement: key: Increase = statistically significant (Mann Whitney U test p < 0.05) increase in horizontal activity and vertical movements indicating lack of sedation or motor impairment at 10 mg/kg po. The protocol:
as §1, §2
The test apparatus consisted of a plastic cubicle (40.6 cm, length; 40.6 cm, width; 30.5 cm, height) that was placed in the center of a main frame. Photocell sensors (8 beams from front to back and 8 beams from side to side) were built into the sides of the frame for monitoring horizontal movement. The photocells were located at right angles to each other, projecting horizontal infrared beams of light 5 cm apart and 2 cm above the floor to measure horizontal activity, and 5 cm apart and 14 cm above the floor to measure vertical activity. Rats were divided into groups (N=8 to 12). Test compound or vehicle was administered orally by gavage in a dose volume equivalent to 5 mL/kg. At 50 minutes after administration each rat was placed into a separate plastic cubicle and spontaneous exploratory activity was recorded for 10 minutes. Horizontal and vertical movements of the rats were recorded by counting the number of times the beams of light were interrupted (horizontal and vertical counts). Collection of the data and preliminary data analysis was automated. A drug-induced decrease in spontaneous horizontal or vertical motor activity was regarded as an indication of sedation.
HA data were analyzed for statistical significance between drug and vehicle-treated groups that were administered either the vehicle or each dose of the test compound by a one-way analysis of variance. Then Dunnett's multiple comparison method was used to test for a reduction (p<0.05, 1-tailed) in the average number of HA counts or VM counts in drug-treated groups, compared to a concurrently run vehicle-treated group. If the probability was less than 5% (p<0.05) that a decrease in HA and/or VM in the drug-treated group compared to a concurrently run vehicle-treated group was due to chance, then the dose of the test compound was considered to have sedative activity. Mann-Whitney T-Test is used in cases where the distribution of the data is non-gaussian.

A further data set has as its system cisplatin induced emesis. Put plainly: Anti-emetic test, cisplatin induced emesis. The format is in vivo, shrew. As to conditions: shrews, 20 mg/kg, administered subcutaneously; statistically significant reduction. As to the method:
The effectiveness of a test compound to inhibit emesis in the shrew were determined according to the procedure described in Darmani, N. A. Serotonin 5-HT3 receptor antagonists prevent cisplatin-induced emesis in Cryptosis parva: a new experimental model of emesis. J Neural. Transm. 1998, 105, 1143-1154.

As for `O=C(CN1CCN(C(=O)c2cccc(C#Cc3ccccn3)c2)CC1)Nc1ccccc1` [Compound 106, N-phenyl-4-[3-(2-pyridinylethynyl)benzoyl]-1-piperazineacetamide], in data set [1], the “Number of Headshakes, IP Admin” value is recorded as “Active” and the “Number of Headshakes, Oral Admin.” value is listed as “Active”.
Consider `O=C(CC1CCN(C(=O)c2cccc(C#Cc3ccccn3)c2)CC1)Nc1ccccc1` [Compound 10, N-phenyl-1-[3-(2-pyridinylethynyl)benzoyl]4-piperdineacetamide], for which, in the data set on rats [2], the “Increase % Open Arm Entries” value is on record as “Active” and the “Increase % Open Arm Time” value is on record as “Active”. Further, in data set [1], the “Number of Headshakes, IP Admin” value is “Active” and the “Number of Headshakes, Oral Admin.” value was “Active”. The “Senktide Headshake Assay” value in data set [3] is recorded as “Active”. In the data set on rats [4], the “SMA Horizontal Activity” value is given as “Increase” and the “SMA Vertical Movement” value is “Increase”. Further, the “cisplatin induced emesis in vivo test (reduction in cisplatin induced retching behavior)” value in the data set on cisplatin induced emesis is listed as “active”.
On to `O=C(CC1CCN(C(=O)c2ccc(/C=C\c3ccncc3)cc2)CC1)Nc1ccccc1` [Compound 73, N-phenyl-1-[4-[(Z)-2-(4-pyridinyl)ethenyl]benzoyl]-4-piperidineacetamide], for which, in data set [1], the “Number of Headshakes, IP Admin” value is reported as “Active” and the “Number of Headshakes, Oral Admin.” value is “Active”.
As for `O=C(CN1CCN(C(=O)c2cccc(NCc3cc(C(F)(F)F)cc(C(F)(F)F)c3)c2)CC1)Nc1ccccc1` [Compound 501, 4-[3-[[[3,5-bis(trifluoromethyl)phenyl]methyl]amino]benzoyl]-N-phenyl-1-piperazineacetamide], the “Number of Headshakes, Oral Admin.” value in data set [1] is listed as “Inactive”.
Consider `O=C(CC1CCN(C(=O)c2cccc(C#Cc3ccccn3)c2)CC1)Nc1ccc(O)cc1` [Compound 75, N-(4-hydroxyphenyl)-1-[3-(2-pyridinylethynyl)benzoyl]-4-piperidineacetamide], for which, in the data set with rats [2], the “Increase % Open Arm Entries” value is given as “Active” and the “Increase % Open Arm Time” value is reported as “Active”. For the same molecule, in data set [1], the “Number of Headshakes, IP Admin” value is “Active” and the “Number of Headshakes, Oral Admin.” value is on record as “Active”. Also, in the data set with rats [4], the “SMA Horizontal Activity” value was “Increase” and the “SMA Vertical Movement” value is listed as “Increase”.

The values are drawn from patent US20050004136A1, “Novel amidoalkyl-piperidine and amidoalkyl-piperazine derivatives useful as neurokinin receptor modulators” (priority 2000, published 2005).
